For one data set, the target named is T1, TLR7 (Homo sapiens, UniProt Q9NYK1).
T1 construct: Human PBMCs were isolated from whole blood of healthy donors; endogenous in cells; host or cells: primary human PBMCs from healthy donors
T1 sequence (Q9NYK1 27-1049): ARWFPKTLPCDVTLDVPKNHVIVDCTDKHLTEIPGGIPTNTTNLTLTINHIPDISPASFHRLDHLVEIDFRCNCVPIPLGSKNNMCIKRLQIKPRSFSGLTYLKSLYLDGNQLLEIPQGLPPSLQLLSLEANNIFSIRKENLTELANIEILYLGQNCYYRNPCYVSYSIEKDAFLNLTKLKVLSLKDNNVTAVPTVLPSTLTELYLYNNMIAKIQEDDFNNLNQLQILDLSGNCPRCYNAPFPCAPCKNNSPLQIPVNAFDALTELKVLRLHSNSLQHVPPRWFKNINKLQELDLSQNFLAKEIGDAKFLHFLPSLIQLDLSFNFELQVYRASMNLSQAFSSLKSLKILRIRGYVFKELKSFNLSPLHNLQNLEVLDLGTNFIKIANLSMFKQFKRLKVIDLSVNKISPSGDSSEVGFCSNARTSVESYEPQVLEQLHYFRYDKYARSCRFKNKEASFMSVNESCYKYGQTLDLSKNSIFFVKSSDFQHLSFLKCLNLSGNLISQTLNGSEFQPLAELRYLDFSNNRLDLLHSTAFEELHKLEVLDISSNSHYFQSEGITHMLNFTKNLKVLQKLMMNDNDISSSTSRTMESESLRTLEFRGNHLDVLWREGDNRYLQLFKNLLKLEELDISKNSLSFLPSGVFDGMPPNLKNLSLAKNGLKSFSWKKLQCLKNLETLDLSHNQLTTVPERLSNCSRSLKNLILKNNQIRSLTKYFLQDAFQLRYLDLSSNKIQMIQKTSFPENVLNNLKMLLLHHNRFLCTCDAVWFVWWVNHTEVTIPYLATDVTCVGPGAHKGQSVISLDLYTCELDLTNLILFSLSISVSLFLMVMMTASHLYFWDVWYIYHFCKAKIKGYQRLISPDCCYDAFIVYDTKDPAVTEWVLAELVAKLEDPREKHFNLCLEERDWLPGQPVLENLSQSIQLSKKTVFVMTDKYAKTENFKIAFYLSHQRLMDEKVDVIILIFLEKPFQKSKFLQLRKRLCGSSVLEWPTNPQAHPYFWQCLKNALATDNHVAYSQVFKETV
The data set is described as follows: Loxoribine (TLR7 agonist)-induced IFN-α/IL-6 production in human PBMCs. In kind it is cell-based. To be noted: for reduction of Lox induced IFN-α / reduction of Lox induced IL-6: 300 μM Lox, formulated 2′OMe RNA 1.5 μg/ml (~0.2 μM), 24 h, replicate experiments; for IL-6 levels induced by naked loxoribine / level of IFN-α induced by naked loxoribine: SNALP-encapsulated ssRNA added before naked agonist, supernatant at 24 hr, ELISA. The protocol:
(§1) All RNA molecules used in this study were heated at 90° C. for 3 min. and then placed at 37° C. for 60 min. Non-denaturing PAGE analysis on a 20% polyacrylamide gel was performed to confirm that ssRNA molecules were intact and that no duplexes had formed upon heating. The RNA molecules were encapsulated in a SNALP formulation comprising PEG-cDMA:DLinDMA:cholesterol:DSPC in a 2:40:48:10 mol % ratio (2:40 SNALP), prepared using a syringe press process.
(§2) Fresh human peripheral blood mononuclear cells (PBMCs) were isolated and seeded at about 3×10^5 cells/well in a total volume of 180 μl. Next, 20 μl of the appropriate SNALP diluted in PBS or 10 μl of naked TLR agonist were added to the PBMCs. For time course experiments, PBMCs were pretreated with UmodS ssRNA or a control and the appropriate naked TLR agonist was added at 0, 0.5, or 2 hours after pretreatment. When the SNALP and naked TLR agonist were added separately, the SNALP was added first followed by the naked TLR agonist. At t=24 hr., the cell supernatant was harvested and IFN-α and/or IL-6 levels were determined using ELISA.
(§3) Lipid Encapsulation of RNA and ODN. RNA or ODN were encapsulated in liposomes by a process of spontaneous vesicle formation as described in Judge et al., supra, and Jeffs et al., Pharm. Res., 22:362-372 (2005).
(§4) Cell Isolation and Culture. Human PBMCs were isolated from whole blood of healthy donors by a standard Ficoll-Hypaque density centrifugation. Blood was diluted 1:1 with PBS, layered onto Ficoll-Paque Plus, and centrifuged at 1600 RPM for 30 min. PBMCs were washed in PBS twice followed by resuspension in complete media (RPMI 1640, 10% heat inactivated FBS, 2 mM L-glutamine, and 1% penicillin/streptomycin). PBMCs were plated at 2.5×10^5 cells/well in 96 well plates for cytokine induction assays.
(§5) Loxoribine (InvivoGen; San Diego, Calif.), polyIC (Sigma-Aldrich; St. Louis, Mo.), and formulated nucleic acids were diluted in PBS and added to either human PBMC or Flt3L DC cultures. Cells were incubated 24 h at 37° C. before supernatants were assayed for cytokines by ELISA.
(§6) Cytokine ELISA. All cytokines were quantified using sandwich ELISA kits according to the manufacturer's instructions. These were mouse and human IFN-α (PBL Biomedical; Piscataway, N.J.) and IL-6 (eBioscience; San Diego, Calif.).
On the technique in general: ELISA stands for enzyme-linked immunosorbent assay.

In another data set the test system is TLR7/8. The data set is described as follows: Cytokine induction in human PBMCs by immunostimulatory RNA, alone or co-formulated with modified ssRNA in the same SNALP/lipid particle. Format: cell-based. To be noted: for immunostimulatory effects (IFN-α induction) of ApoB antisense ssRNA when co-formulated / immunostimulatory effects (IFN-α induction) of ApoB siRNA duplex when co-formulated: co-formulated in the same SNALP; for immunostimulatory effects (IFN-α induction) of ApoB antisense ssRNA when co-formulated: 1:1 molar ratio; for immunostimulatory effects (IFN-α induction) of ApoB siRNA duplex when co-formulated: equimolar. The protocol:
as §1, §2
The ssRNA molecules used in this study were heated at 90° C. for 3 min. and then placed at 37° C. for 60 min to disrupt any potential secondary structure. Non-denaturing PAGE analysis on a 20% polyacrylamide gel was performed to confirm that ssRNA molecules were intact and that no duplexes had formed upon heating. siRNA duplexes were prepared by annealing equimolar concentrations of two deprotected and desalted ssRNA oligonucleotides using standard procedures. Formation of annealed siRNA duplexes was confirmed by non-denaturing PAGE analysis on a 20% polyacrylamide gel. The RNA molecules were encapsulated in a 2:40 SNALP formulation prepared using a syringe press process.
Fresh human peripheral blood mononuclear cells (PBMCs) were isolated and seeded at about 3×10^5 cells/well in a total volume of 180 μl. Next, 20 μl of the appropriate SNALP diluted in PBS were added to the PBMCs. At t=24 hr., the cell supernatant was harvested and IFN-α and/or IL-6 levels were determined using an enzyme-linked immunosorbent assay (ELISA). For example, IFN-α and IL-6 levels can be measured using a sandwich ELISA kit available from PBL Biomedical (Piscataway, N.J.) and eBioscience (San Diego, Calif.), respectively.
as §3, §4, §5, §6

Where [1] appears, read: human PBMCs, equimolar amounts in the same SNALP, 24 h.
[2] abbreviates: human PBMCs, co-encapsulated in equimolar amounts in the same SNALP, 24 hr.
Setting [3] is: human PBMCs, 24 h, listed as Luc-mU.

“Also recorded” adds a separate entry of the source. m = 2'-O-methyl; r = 2'-OH (RNA)

As for “polyUmod21: 2′OMe-uridine homopolymer of 21 nucleotides in length (UUUUUUUUUUUUUUUUUUUUU; all 2'-O-methyl, backbone not given here)”, in the data set with TLR7, the “reduction of Lox induced IFN-α” value is 72+/−5%, the “reduction of Lox induced IL-6” value was 80+/−1%, the “IL-6 levels induced by naked loxoribine” value is on record as “inhibited” and the “level of IFN-α induced by naked loxoribine” value was “inhibited”. The “cytokine production from human PBMCs when co-formulated with immunostimulatory RNA” value in the data set on TLR7/8 (human PBMCs, co-formulated with immunostimulatory ssRNA) is reported as “equally as effective at inhibiting cytokine production”. Moreover, in the data set on TLR7/8 (setting [1]), the “IFN-α levels induced by β-gal antisense ssRNA when co-encapsulated” value (shortened to “IFN-α levels induced … when co-encapsulated”) is reported as “significantly reduced” and the “IL-6 levels induced by β-gal antisense ssRNA when co-encapsulated” value is listed as “significantly reduced”. Moreover, the “IFN-α levels induced … when co-encapsulated” value in the data set on TLR7/8 (human PBMCs, equimolar amounts in the same SNALP, 24 h, listed as (mU)21) is reported as “inhibit”.
On to “Luc UmodS: Luc sense strand ssRNA with 2′OMe at uridines: GAmUmUAmUGmUCCGGmUmUAmUGmUAUU (sense GAUUAUGUCCGGUUAUGUAUU; sugars from the 5' end rrmmrmrmrrrrmmrmrmrrr, backbone not given here)”, for which, in the data set with TLR7, the “reduction of Lox induced IFN-α” value was 55+/−16%, the “reduction of Lox induced IL-6” value is reported as 62+/−10%, the “IL-6 levels induced by naked loxoribine” value is on record as “inhibited” and the “level of IFN-α induced by naked loxoribine” value is given as “dose-dependently decrease; also recorded: inhibited”. In addition, in the data set on TLR7/8 (human PBMC cultures, lipid-formulated RNA alone, doses 0.1 to 3 μg/ml), the “IFN-α production induced by the RNA alone” value is on record as “do not induce measurable IFN-α production”. For the same substance, in the data set on TLR7/8 (setting [2]), the “IFN-α levels induced by TLR7/8 agonist RNA40” value is given as “significantly reduce” and the “IL-6 levels induced by TLR7/8 agonist RNA40” value is given as “significantly reduce”. Besides, in the data set with TLR7/8 (human PBMCs, 24 h), the “immunostimulatory effects (IFN-α induction) of ApoB antisense ssRNA when co-formulated” value is reported as “abolished” and the “immunostimulatory effects (IFN-α induction) of ApoB siRNA duplex when co-formulated” value is listed as “significantly reduced”. For the same substance, in the data set with TLR7/8 (setting [3]), the “immunostimulatory effects (IFN-α induction) of ApoB antisense ssRNA when co-formulated” value is “abrogated” and the “immunostimulatory effects (IFN-α induction) of ApoB siRNA duplex when co-formulated” value is reported as “abrogated”. Moreover, the “IFN-α levels induced … when co-encapsulated” value with TLR7/8 (setting [1]) was “abrogated”.
